Data: US20240287138A1, “CYCLIC PEPTIDES FOR INHIBITING TNF RECEPTOR 1 ACTIVITY” (Merck Sharp & Dohme LLC, priority 2023, published 2024)
Numbered stars: 1 amine (or outer) side, 2 acyl side, 3 side chain; on linkers, the order of the positions; unused ones are H or OH. Square brackets hold non-standard residues; d marks the D form. Peptide text beside a SMILES is read from it. * marks the point of attachment. Trp(βS-Me,7-OMe) = COc1cccc2c([C@H](C)[C@H](N)C(=O)O)c[nH]c12; dPro(trans-4-NMe3+) = C[N+](C)(C)[C@@H]1CN[C@@H](C(=O)O)C1; Trp(1-CH2COOH) = N[C@@H](Cc1cn(CC(=O)O)c2ccccc12)C(=O)O; Phe(4-SO2NH2) = N[C@@H](Cc1ccc(S(N)(=O)=O)cc1)C(=O)O; Trp(7-CN) = N#Cc1cccc2c(C[C@H](N)C(=O)O)c[nH]c12; Trp(7-Cl) = N[C@@H](Cc1c[nH]c2c(Cl)cccc12)C(=O)O; X27 = O=C(O)c1ccc(C[C@H](N[*:1])C(=O)[*:2])cc1F; Phe(3-CONH2) = NC(=O)c1cccc(C[C@H](N)C(=O)O)c1; Phe(3-COOH) = N[C@@H](Cc1cccc(C(=O)O)c1)C(=O)O; Phe(4-CONH2) = NC(=O)c1ccc(C[C@H](N)C(=O)O)cc1; Phe(4-COOH) = N[C@@H](Cc1ccc(C(=O)O)cc1)C(=O)O; X30 = O=C([C@@H](N[*:1])[C@H](O)c1ccncc1)[*:2]; Trp(7-aza) = N[C@@H](Cc1c[nH]c2ncccc12)C(=O)O; dPro(trans-4-F) = O=C(O)[C@H]1C[C@H](F)CN1; Pip(5R-OH) = O=C(O)[C@@H]1CC[C@@H](O)CN1; X1 = O=C([C@@H]1CC[C@H](N[*:1])C1)[*:2]; Gly(Nα-CH2CH2CONH2) = NC(=O)CCNCC(=O)O; Pip(4-aza) = O=C(O)[C@@H]1CNCCN1; 4Pal = N[C@@H](Cc1ccncc1)C(=O)O; NMeE = CN[C@@H](CCC(=O)O)C(=O)O; dHyp = O=C(O)[C@H]1C[C@H](O)CN1; Ahp(2) = CCCCC[C@H](N)C(=O)O; αMeS = C[C@](N)(CO)C(=O)O; Carboxymethyl = O=C(O)C*; Nle = CCCC[C@H](N)C(=O)O; Sar = CNCC(=O)O

What was measured:
[1] = molecular target: T1, TNFα-induced NF-κB signal transduction pathway (TNFR1 signaling) in THP-1 cells (Homo sapiens, UniProt P19438); test: THP-1 Lucia NF-κB reporter cell assay, inhibition of TNFα-induced NF-κB signaling; type: cell-based; conditions: THP-1 NF-κB Lucia reporter cells, 10 ng/mL TNFα, 16-18 h, secreted luciferase; read-out: THP-1 IC50
T1 sequence (P19438 30-455): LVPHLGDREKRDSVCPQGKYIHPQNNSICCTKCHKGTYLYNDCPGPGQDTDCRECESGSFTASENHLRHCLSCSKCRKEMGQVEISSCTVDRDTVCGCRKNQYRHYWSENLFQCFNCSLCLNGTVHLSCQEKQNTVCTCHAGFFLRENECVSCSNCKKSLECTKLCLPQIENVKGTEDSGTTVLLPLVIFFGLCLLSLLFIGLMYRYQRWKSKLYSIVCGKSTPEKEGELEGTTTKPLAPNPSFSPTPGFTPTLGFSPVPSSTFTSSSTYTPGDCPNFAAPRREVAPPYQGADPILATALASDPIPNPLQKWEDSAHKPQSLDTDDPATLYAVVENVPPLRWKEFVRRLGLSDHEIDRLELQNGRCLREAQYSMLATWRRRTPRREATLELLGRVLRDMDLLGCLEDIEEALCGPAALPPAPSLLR
Procedure, shortened: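 THP-1 Lucia NF-κB cells, 20k/well, no selection antibiotics; peptide pre-inc 1 h 37 °C; + recombinant human TNFα 10 ng/mL final; o.n.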

[2] = molecular target: T2, human TNFR1 extracellular domain (ECD) protein (Homo sapiens, UniProt P19438); test: SPR binding affinity to captured human TNFR1 ECD
T2 construct: HRV 3C protease cleavage site (C); 6His (C, cleaved yes); made in house; host or cells: Sf21 insect cells (baculovirus), secreted
T2 sequence (P19438 30-211): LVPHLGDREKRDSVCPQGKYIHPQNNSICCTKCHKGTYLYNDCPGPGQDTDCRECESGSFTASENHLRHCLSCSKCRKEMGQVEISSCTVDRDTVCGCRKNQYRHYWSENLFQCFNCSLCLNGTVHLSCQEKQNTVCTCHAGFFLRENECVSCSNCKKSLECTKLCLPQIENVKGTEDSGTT
Procedure, shortened: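 Peptide binding kinetics read by SPR in HEPES pH 7.4 running buffer with 2% DMSO, with TNFR2 ECD tested in parallel for off-target binding. Receptor ECDs, insect-cell expressed and biotinylated at C-terminal avi-tag, were captured via streptavidin. KA derived from association and dissociation rate constants.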

Compound | IC50 [1] [nM] | Kd [2] [nM]
CCCC[C@@H]1NC(=O)[C@@H]2CC[C@@H](C2)NC(=O)[C@H]([C@@H](C)c2c[nH]c3c(OC)cccc23)NC(=O)CN(C)C(=O)[C@H](Cc2ccc(C(=O)O)cc2)NC(=O)[C@H](Cc2ccc(S(N)(=O)=O)cc2)NC(=O)[C@](C)(CO)NC(=O)[C@H](Cc2c[nH]c3c(C#N)cccc23)NC(=O)[C@H](Cc2ccc(C(=O)O)cc2)NC(=O)[C@H](CC(N)=O)NC(=O)[C@H]2C[C@H](OCC(=O)O)CN2C(=O)[C@H](Cc2c[nH]c3ncccc23)NC(=O)[C@@H]2CC[C@@H](O)CN2C(=O)[C@H](Cc2ccncc2)NC1=O [SEQ ID NO. 4] (cyclo([4Pal][Pip(5R-OH)][Trp(7-aza)][dHyp](Carboxymethyl)N[Phe(4-COOH)][Trp(7-CN)][αMeS][Phe(4-SO2NH2)][Phe(4-COOH)][Sar][Trp(βS-Me,7-OMe)][X1][Nle])) | 0.5 | 0.1
CCCC[C@@H]1NC(=O)[C@@H]2CC[C@@H](C2)NC(=O)[C@H]([C@@H](C)c2c[nH]c3c(OC)cccc23)NC(=O)CN(C)C(=O)[C@H](Cc2ccc(C(=O)O)cc2)NC(=O)[C@H](Cc2ccc(C(N)=O)cc2)NC(=O)[C@](C)(CO)NC(=O)[C@H](Cc2c[nH]c3c(C#N)cccc23)NC(=O)[C@H](Cc2ccc(C(=O)O)c(F)c2)NC(=O)[C@H](CC(N)=O)NC(=O)[C@H]2C[C@H](O)CN2C(=O)[C@H](Cc2c[nH]c3ncccc23)NC(=O)[C@@H]2CC[C@@H](O)CN2C(=O)[C@H](Cc2ccncc2)NC1=O [SEQ ID NO. 8] (cyclo([4Pal][Pip(5R-OH)][Trp(7-aza)][dHyp]N[X27][Trp(7-CN)][αMeS][Phe(4-CONH2)][Phe(4-COOH)][Sar][Trp(βS-Me,7-OMe)][X1][Nle])) | 0.7 | 0.08
CCCC[C@@H]1NC(=O)[C@@H]2CC[C@@H](C2)NC(=O)[C@H]([C@@H](C)c2c[nH]c3c(OC)cccc23)NC(=O)CN(C)C(=O)[C@H](Cc2ccc(C(N)=O)cc2)NC(=O)[C@H](Cc2ccc(S(N)(=O)=O)cc2)NC(=O)[C@](C)(CO)NC(=O)[C@H](Cc2c[nH]c3c(C#N)cccc23)NC(=O)[C@H](Cc2ccc(C(=O)O)cc2)NC(=O)[C@H](CC(N)=O)NC(=O)[C@H]2C[C@H]([N+](C)(C)C)CN2C(=O)[C@H](Cc2cn(CC(=O)O)c3ccccc23)NC(=O)[C@@H]2CC[C@@H](O)CN2C(=O)[C@H](Cc2ccncc2)NC1=O [SEQ ID NO. 9] (cyclo([4Pal][Pip(5R-OH)][Trp(1-CH2COOH)][dPro(trans-4-NMe3+)]N[Phe(4-COOH)][Trp(7-CN)][αMeS][Phe(4-SO2NH2)][Phe(4-CONH2)][Sar][Trp(βS-Me,7-OMe)][X1][Nle])) | 0.6 | 0.1
CCCCC[C@@H]1NC(=O)[C@@H]2CC[C@@H](C2)NC(=O)[C@H]([C@@H](C)c2c[nH]c3c(OC)cccc23)NC(=O)CN(C)C(=O)[C@H](Cc2cccc(C(N)=O)c2)NC(=O)[C@H](Cc2ccc(C(N)=O)cc2)NC(=O)[C@](C)(CO)NC(=O)[C@H](Cc2c[nH]c3c(C#N)cccc23)NC(=O)[C@H](Cc2ccc(C(=O)O)cc2)NC(=O)[C@H](CC(N)=O)NC(=O)CN(CCC(N)=O)C(=O)[C@H](Cc2c[nH]c3ccccc23)NC(=O)[C@@H]2CNCCN2C(=O)[C@H](Cc2ccncc2)NC1=O [SEQ ID NO. 10] (cyclo([4Pal][Pip(4-aza)]W[Gly(Nα-CH2CH2CONH2)]N[Phe(4-COOH)][Trp(7-CN)][αMeS][Phe(4-CONH2)][Phe(3-CONH2)][Sar][Trp(βS-Me,7-OMe)][X1][Ahp(2)])) | 0.8 | 0.08
CCCC[C@@H]1NC(=O)[C@@H]2CC[C@@H](C2)NC(=O)[C@H]([C@@H](C)c2c[nH]c3c(OC)cccc23)NC(=O)CN(C)C(=O)[C@H](Cc2ccc(C(N)=O)cc2)NC(=O)[C@H](Cc2ccc(C(N)=O)cc2)NC(=O)[C@](C)(CO)NC(=O)[C@H](Cc2c[nH]c3c(C#N)cccc23)NC(=O)[C@H](Cc2ccc(C(=O)O)cc2)NC(=O)[C@H](CC(N)=O)NC(=O)[C@H]2C[C@H](OC)CN2C(=O)[C@H](Cc2c[nH]c3ccccc23)NC(=O)[C@@H]2CC[C@@H](O)CN2C(=O)[C@H](Cc2ccncc2)NC1=O [SEQ ID NO. 14] (cyclo([4Pal][Pip(5R-OH)]W[dHyp](Me)N[Phe(4-COOH)][Trp(7-CN)][αMeS][Phe(4-CONH2)][Phe(4-CONH2)][Sar][Trp(βS-Me,7-OMe)][X1][Nle])) | 0.8 | 0.02
CCCCC[C@@H]1NC(=O)[C@@H]2CC[C@@H](C2)NC(=O)[C@H]([C@@H](C)c2c[nH]c3c(OC)cccc23)NC(=O)CN(C)C(=O)[C@H](Cc2ccc(C(N)=O)cc2)NC(=O)[C@H](Cc2ccc(C(N)=O)cc2)NC(=O)[C@](C)(CO)NC(=O)[C@H](Cc2c[nH]c3c(C#N)cccc23)NC(=O)[C@H](Cc2ccc(C(=O)O)cc2)NC(=O)[C@H](CC(N)=O)NC(=O)[C@H]2C[C@H](O)CN2C(=O)[C@H](Cc2c[nH]c3ccccc23)NC(=O)[C@H](CO)NC(=O)[C@H]([C@H](O)c2ccncc2)NC1=O [SEQ ID NO. 16] (cyclo([Ahp(2)][X30]SW[dHyp]N[Phe(4-COOH)][Trp(7-CN)][αMeS][Phe(4-CONH2)][Phe(4-CONH2)][Sar][Trp(βS-Me,7-OMe)][X1])) | 0.6 | 0.09
CCCC[C@@H]1NC(=O)[C@@H]2CC[C@@H](C2)NC(=O)[C@H]([C@@H](C)c2c[nH]c3c(OC)cccc23)NC(=O)CN(C)C(=O)[C@H](Cc2cccc(C(=O)O)c2)NC(=O)[C@H](Cc2ccc(C(N)=O)cc2)NC(=O)[C@](C)(CO)NC(=O)[C@H](Cc2c[nH]c3c(Cl)cccc23)NC(=O)[C@H](Cc2ccc(C(=O)O)cc2)NC(=O)[C@H](CC(N)=O)NC(=O)[C@H]2C[C@H](O)CN2C(=O)[C@H](Cc2c[nH]c3ccccc23)NC(=O)[C@@H]2CC[C@@H](O)CN2C(=O)[C@H](Cc2ccncc2)NC1=O [SEQ ID NO. 17] (cyclo([4Pal][Pip(5R-OH)]W[dHyp]N[Phe(4-COOH)][Trp(7-Cl)][αMeS][Phe(4-CONH2)][Phe(3-COOH)][Sar][Trp(βS-Me,7-OMe)][X1][Nle])) | 0.8 | 0.04
CCCC[C@@H]1NC(=O)[C@@H]2CC[C@@H](C2)NC(=O)[C@H]([C@@H](C)c2c[nH]c3c(OC)cccc23)NC(=O)CN(C)C(=O)[C@H](Cc2ccc(C(N)=O)cc2)NC(=O)[C@H](Cc2ccc(C(N)=O)cc2)NC(=O)[C@](C)(CO)NC(=O)[C@H](Cc2c[nH]c3c(C#N)cccc23)NC(=O)[C@H](Cc2ccc(C(=O)O)cc2)NC(=O)[C@H](CC(N)=O)NC(=O)[C@H](CCC(=O)O)N(C)C(=O)[C@H](Cc2c[nH]c3ccccc23)NC(=O)[C@@H]2CC[C@@H](O)CN2C(=O)[C@H](Cc2ccncc2)NC1=O [SEQ ID NO. 19] (cyclo([4Pal][Pip(5R-OH)]W[NMeE]N[Phe(4-COOH)][Trp(7-CN)][αMeS][Phe(4-CONH2)][Phe(4-CONH2)][Sar][Trp(βS-Me,7-OMe)][X1][Nle])) | 0.6 | 0.07
CCCC[C@@H]1NC(=O)[C@@H]2CC[C@@H](C2)NC(=O)[C@H]([C@@H](C)c2c[nH]c3c(OC)cccc23)NC(=O)CN(C)C(=O)[C@H](Cc2ccc(C(=O)O)cc2)NC(=O)[C@H](Cc2ccc(C(N)=O)cc2)NC(=O)[C@](C)(CO)NC(=O)[C@H](Cc2c[nH]c3c(Cl)cccc23)NC(=O)[C@H](Cc2ccncc2)NC(=O)[C@H](CC(N)=O)NC(=O)[C@H]2C[C@H](F)CN2C(=O)[C@H](Cc2c[nH]c3ccccc23)NC(=O)[C@@H]2CC[C@@H](O)CN2C(=O)[C@H](Cc2ccncc2)NC1=O [SEQ ID NO. 101] (cyclo([4Pal][Trp(7-Cl)][αMeS][Phe(4-CONH2)][Phe(4-COOH)][Sar][Trp(βS-Me,7-OMe)][X1][Nle][4Pal][Pip(5R-OH)]W[dPro(trans-4-F)]N)) | 0.9 | 0.05
